Test results published in patent US20220280581A1, “BENEFICIAL BACTERIA AND SECRETORY IMMUNOGLOBULIN A” (priority 2019, published 2022).

Legend:
[1] = tested on: Caco-2 colonic cells co-cultured with HT29-MTX E12 cells; experiment: Bacterial adherence to colonocyte co-cultures; type: cell-based, human
Experimental: (§1) Mammalian cell culture binding assays: Caco-2 colonic cells were co-cultured with HT29-MTX E12 cells at a ratio of 3:1 and seeded at a density of 5×10^4 cells/well in 24-well plates, maintained as described above. On day 1 post-confluence, medium was removed, the cells washed once with PBS, and DMEM without FBS or antibiotics was added prior to binding assay. Bacteria were prepared as described above, with or without SIgA and resuspended in PBS at 1×10^7 CFU/mL. 4×10^5 CFU were added to the colonocytes and the plate was centrifuged at 600×g for 5 min to ensure bacteria association with the cells. After 2 h of incubation at 37° C. in 5% CO2, medium was removed and saved for cytokine analysis. Cells were washed once with PBS, and to one set of replicates, cells were lysed with 0.5% Triton X-100 and serial dilutions of the cell suspensions were plated on MRS and incubated anaerobically at 37° C. overnight to test viability. To a second set of replicates, TRIzol (15596018; Life Technologies) was added directly to washed cells for RNA extraction.

[2] = tested on: pooled human milk SIgA; experiment: Binding of SIgA to bacteria by flow cytometry; conditions: 100 μg SIgA to 1e6 cfu bacteria
[3] = Protection from simulated gastric digestion in vitro (pepsin, pancreatin): viability by CFU plating and live/dead flow cytometry; conditions: for Slope (CFU/% SIgA): regression of viable CFU post-digestion on SIgA association
Experimental: (§2) Flow cytometry and immunofluorescence: To measure binding cells were fixed using 4% w/v paraformaldehyde for 30 min, washed with PBS, then incubated with 1% bovine serum albumin (BSA) blocking buffer for 1 h. Cells were stained with 1/100 dilution SYTOT™ 9 (S34854, ThermoFisher) for live cells and goat anti-human IgA conjugated to Alexa 647 fluorophore using 1/50 dilution in 1% BSA (ab96998, Abcam). For flow cytometry, all samples were acquired and analyzed on a FACScan flow cytometer (BD Biosciences, Mountain View, Calif.) using the CellQuest software program. For live/dead analyses following in vitro digestion, cells were stained with SYTOT™ 9 (1/100 dilution) for live cells and propidium iodine (1/1000 dilution) for dead cells or cells with compromised membranes.
Protection from digestion using an in vitro model. To determine the extent to which the SIgA-glycan-mediated-bacterial complexes that included the Ig-bound secretory component (SC) where able to protect bacteria and SIgA from proteolytic degradation, an in vitro model was used. Simulated gastric digestion was performed by resuspending bacteria in 200 ul of 0.1% porcine pepsin (Sigma—Aldrich, St. Louis, Mo.) in PBS at pH 4. Samples were placed in an incubating shaker (New Brunswick Scientific, Edison, N.J.) at 140 rpm at 37° C. for 15 min. Cells were then pelleted and resuspended in 200 ul of 0.04% pancreatin (Sigma— Aldrich) in PBS pH 7, and the samples placed in the incubator shaker at 140 rpm at 37° C. for 5 min. Bacteria were pelleted and washed twice with PBS to remove residual enzymes, then evaluated for viability through CFU serial dilution and spot plating, and with live/dead flow cytometry analysis.

[4] = tested on: pooled human milk SIgA; experiment: Binding of SIgA to bacteria by flow cytometry; conditions: for binding of a heterogeneous pool of SIgA: 0-1000 μg SIgA per 1e7 CFU; for association to SIgA when first grown on 2′FL: 1% 2′FL in the final media
Experimental: Binding of sIgA to bacteria. Bacteria from Table 1 were resuspended in 0.8% saline at a concentration of 1×10^7 CFU/mL. SIgA was then added at 0, 10, 100, 500 and 1000 μg per 1×10^7 colony forming units (CFU) of bacteria and incubated at 24° C. for 30 min. Following incubation, bacteria were pelleted at 14000×g for 4 min and washed with saline twice to remove non-adherent SIgA.
as §2

[5] = tested on: SIgA; experiment: Loss of SIgA-bacteria association after deglycosylation; type: binding
[6] = tested on: colonocytes (Caco-2 / HT29-MTX E12 co-culture); experiment: Colonocyte barrier function and immune gene expression (RT-qPCR); type: cell-based, human; conditions: 1000 μg SIgA per 1e7 CFU vs no SIgA
Experimental: as §1
Mammalian cell culture RT-qPCR for gene expression: Total RNA from mammalian co-culture samples were extracted via the TRIzol method. Total RNA (1 μg) was treated with Turbo DNAse (EN0521; Thermo Fisher) to remove genomic DNA, then used for reverse transcription producing cDNA, performed according to manufacturer protocol (High Capacity Complementary DNA Reverse Transcription Kit; Applied Biosystems). Gene list and primer sequences can be found in Table 2. Real-time PCR was performed with the Quantistudio 3 qPCR thermocycler (Applied Biosystems) using SyberGreen master mix (Life Technologies). Actin and GADPH were used as house-keeping genes. Analysis was performed using Quantistudio Design and Analysis Software v.1.4.3.

Substance | Slope (adherent CFU/% SIgA association) ([1]; substrate 2'FL) | Slope (adherent CFU/% SIgA association) ([1]; substrate all) | Slope (adherent CFU/% SIgA association) ([1]; substrate glucose) | Slope (CFU/% SIgA) ([3]; substrate lactose) | Slope (adherent CFU/% SIgA association) ([1]; substrate lactose) | Slope (CFU/% SIgA) ([3]; substrate glucose) | also measured
Bifidobacterium bifidum SC555 | 16.9 adherent CFU/% SIgA associatio | 896.4 adherent CFU/% SIgA associatio | 2288.0 adherent CFU/% SIgA associatio | – | – | – | –
Bifidobacterium breve SC95 | – | 13289.0 adherent CFU/% SIgA associatio | 9083.0 adherent CFU/% SIgA associatio | −106.9 CFU/% SIgA | 4617.0 adherent CFU/% SIgA associatio | – | ability to bind to pooled human milk SIgA [2]: 16%; increase in SIgA binding when first grown on an HMO substrate [2]: 45%; live bacteria post-digestion (live-dead flow cytometry) ([3]; 1000 μg SIgA/1e7 CFU): 57.8%; live bacteria post-digestion (live-dead flow cytometry) ([3]; no SIgA): no viable bacteria; Slope (CFU/% SIgA) ([3]; substrate LNnT): 223.1 CFU/% SIgA; Slope (adherent CFU/% SIgA association) ([1]; substrate LNnT): 19516.0 adherent CFU/% SIgA associatio
Bifidobacterium longum ssp. longum SC596 | 37.7 adherent CFU/% SIgA associatio | 27.1 adherent CFU/% SIgA associatio | 28.5 adherent CFU/% SIgA associatio | – | −13.3 adherent CFU/% SIgA associatio | – | binding of a heterogeneous pool of SIgA [4]: concentration dependent; association to SIgA when first grown on 2′FL [4]: increased association to SIgA; live bacteria post-digestion (live-dead flow cytometry) ([3]; 1000 μg SIgA/1e7 CFU): 50.85%; live bacteria post-digestion (live-dead flow cytometry) ([3]; no SIgA): 29.05%; increased adherence to colonocytes with SIgA association ([1]; first grown on 2′FL): 4e3
Bifidobacterium pseudocatenulatum MP80 | −50.6 adherent CFU/% SIgA associatio | 32.0 adherent CFU/% SIgA associatio | 14.2 adherent CFU/% SIgA associatio | – | – | 82548 CFU/% SIgA | ability to bind to pooled human milk SIgA [2]: 40.3%; increase in SIgA binding when first grown on an HMO substrate [2]: 61.7%; association to SIgA when first grown on 2′FL [4]: increased association to SIgA; viable bacteria post-digestion ([3]; grown on glucose, 100 or 1000 μg SIgA/1e7 CFU): 4e6; viable bacteria post-digestion ([3]; grown on glucose, no SIgA): 2e5 CFU; slope of regression plot of viability with SIgA association ([3]; post-digestion, grown on glucose): 8.2e4 CFU per % population SIgA association; Slope (CFU/% SIgA) ([3]; substrate 2′FL): 51114 CFU/% SIgA
Lactobacillus acidophilus NCFM | – | −3134.0 adherent CFU/% SIgA associatio | −3014.0 adherent CFU/% SIgA associatio | 38918 CFU/% SIgA | −3341.0 adherent CFU/% SIgA associatio | −8952 CFU/% SIgA | slope m of association to SIgA post-digestion ([3]; grown on glucose): −8.9e3 CFU/% SIgA association
Lactobacillus reuteri DSM | – | −4652.0 adherent CFU/% SIgA associatio | −9455.0 adherent CFU/% SIgA associatio | 47155 CFU/% SIgA | 524.1 adherent CFU/% SIgA associatio | −38517 CFU/% SIgA | loss of SIgA-bacteria complexes after deglycosylation [5]: over 7%; slope m of association to SIgA post-digestion ([3]; grown on glucose): −3.9e4 CFU/% SIgA association
Lactobacillus rhamnosus ATCC 7469 | 333.3 adherent CFU/% SIgA associatio | – | −138.4 adherent CFU/% SIgA associatio | −23719 CFU/% SIgA | 456.6 adherent CFU/% SIgA associatio | −2121 CFU/% SIgA | decrease of IL-8 gene expression when first complexed with SIgA [6]: 4 fold; decrease of pIgR gene expression when first complexed with SIgA [6]: 4 fold; binding of a heterogeneous pool of SIgA [4]: concentration dependent; difference post-digestion with or without SIgA ([3]; grown in 1% glucose): no significant difference; Slope (CFU/% SIgA) ([3]; substrate 2′FL): −39446 CFU/% SIgA; slope of regression plot of adherent bacteria with SIgA association ([1]; lactose-grown): 37.7 adherent CFU per % population associated with SIgA
